2 molecules from patent US12121521B2, “Uses of salt-inducible kinase (SIK) inhibitors for treating osteoporosis” (The General Hospital Corporation, priority 2016, dated 2024) can be followed below.

Each structure is given as a SMILES string.

The subject of one experiment is Ocy454 cells. The experiment is described as follows: Gene expression in Ocy454 cells by RT-qPCR. The experiment is classed as cell-based, mouse. The conditions noted are these: 0.5 μM, 3.5 hours; FIG. 21. How it is done: In FIG. 21, Ocy454 cells (osteocyte cell line, also known at 6-9 cells) were cultured at 37° C. for 2 weeks to permit osteocyte differentiation. The cells were then treated with the indicated compound (0.5 μM) for 3.5 hours, and gene expression was analyzed by RT-qPCR. SOST expression was reduced by the indicated compounds. RANKL expression was increased by the indicated compounds. […] Therefore, these changes in gene expression may be due to on-target effects of the indicated compound.
For all experiments, a single cell subclone of Ocy454 cells (17, 18) was used. Cells were passages in alpha-MEM supplemented with 10% heat-inactivated fetal bovine serum and 1% antibiotics (penicillin/streptomycin, Fungizone) at 33° C. with 5% CO2. Cells were plated at 50,000 cells/ml and allowed to reach confluency at 33° C. (typically in 2-3 days). At this point, cells were transferred to 37° C. for subsequent analysis. For immunoblotting, cells were always analyzed after culture at 37° C. for 7 days. For gene expression analysis, cells were analyzed after culture at 37° C. for 14 days. Mycoplasma contamination was ruled out by PCR. Cells were routinely assayed for SOST expression at 37° C. and examined for osteocytic morphology.
Total RNA was extracted from cultured cells using RNeasy (Qiagen, Venlo, Netherlands) following the manufacturer's instructions. For long bone RNA isolation, mice were sacrificed and both femurs were rapidly dissected on ice. Soft tissue was removed and epiphyses cut. Bone marrow cells were then removed by serial flushing with ice-cold PBS. TRIzol (Life Technologies) was added and sampled were frozen at −80C and then homogenized. RNA was then extracted per the manufacturer's instructions, and further purified on RNeasy microcolumns prior to cDNA synthesis. RNA with A260/280 ratio <1.7 was not used for downstream analysis. For cDNA synthesis, 1 μg RNA was used in synthesis reactions according to the instructions of the manufacturer (Primescript RT, Takara). SYBR Green-based qPCR detection was performed using FastStart Universal SYBR Green (Roche, Basel, Switzerland) on a StepOne Plus (Applied Biosystems, Carlsbad, CA) thermocycler.
Background: Real-time PCR tracks product formation cycle by cycle.

In experiment [1] the test system is oophorectomized (OVX) female C57B/6 mice. The experiment is described as follows: OVX mice: micro-CT, histomorphometry, bone turnover markers. In kind it is in vivo, mouse. As to the method: Assessment of bone morphology and microarchitecture was performed with high-resolution micro-computed tomography (pCT40; Scanco Medical, Brüttisellen, Switzerland). In brief, the distal femoral metaphysis and mid-diaphysis were scanned using 70 kVp peak x-ray tube potential, 113 mAs x-ray tube current, 200 ms integration time, and 10-μm isotropic voxel size. Cancellous bone was assessed in the distal metaphysis and cortical bone was assessed in the mid-diaphysis. The femoral metaphysis region began 1700 μm proximal to the distal growth plate and extended 1500 μm distally. Cancellous bone was separated from cortical bone with a semiautomated contouring program. For the cancellous bone region, bone volume fraction (BV/TV, %), trabecular thickness (Tb.Th, mm), trabecular separation (Tb.Sp, mm), trabecular number (Tb.N, 1/mm), connectivity density (Conn.D or ConnD, 1/mm^3), and structure model index (SMI) were assessed. Transverse CT slices were also acquired in a 500 μm long region at the femoral mid-diaphysis to assess total cross-sectional area, cortical bone area, and medullary area (Tt.Ar, Ct.Ar, and Ma.Ar, respectively, all mm^2); bone area fraction (Ct.Ar/Tt.Ar, %), cortical thickness (Ct.Th, mm), porosity (Ct.Po, %) and minimum (Imin, mm^4), maximum (Imax, mm^4), and polar (J, mm^4) moments of inertia. Bone was segmented from soft tissue using the same threshold, 300 mg HA/cm^3 for trabecular and 733 mg HA/cm^3 for cortical bone. Scanning and analyses adhered to the guidelines for the use of micro-CT for the assessment of bone architecture in rodents (74). For the primary spongiosa region (where intermittent PTH treatment has its predominant effect) analyzed in FIG. 13A, coronal CT slices were evaluated in a 500 μm (50 slices) region located centrally in the bone. […] The primary spongiosa bone region was identified by semi-manually contouring the region of interest. Images were thresholded using an adaptive-iterative algorithm. The average adaptive-iterative threshold of control mice (WT, vehicle treated) for the region of interest (299 mgHA/cm^3) were then used to segment bone from soft tissue for all distal femur images. Micro-CT analysis was done based on sample numbers in a completely blinded manner.
Right tibia from 8-week-old mice were subjected to bone histomorphometric analysis. […] The structural, dynamic and cellular parameters were calculated and expressed according to the standardized nomenclature (75).
48 female C57B/6 mice were subjected to sham surgery (SHAM; n=24) or oophorectomy (n=24) at 12 weeks of age. […] The mice were assessed by micro-CT (μ-CT) of the femur and L5 vertebrae, and static/dynamic histomorphometry of the tibia.

On to `COc1ccc(N2C(=O)N(c3c(C)cccc3C)Cc3cnc(Nc4ccc(C5CCN(C)CC5)c(OC)c4)nc32)c(OC)c1` [YKL-05-093], for which, in the experiment on Ocy454 cells, the RANKL expression result is “most active in these experiments at reducing SOST and increasing RANKL”; the SOST expression entry is on record as “most active in these experiments at reducing SOST”.
Regarding `COc1ccc(N2C(=O)N(c3c(C)cccc3Cl)Cc3cnc(Nc4ccc(C5CCN(C)CC5)cc4OC)nc32)nc1` [YKL-05-099], the osteoblast numbers result in experiment [1] (FIG. 32A) is recorded as “increased osteoblast numbers”. Also, the “osteoclast activity / eroded surfaces” value in experiment [1] (FIG. 32C) is reported as “reduced eroded surfaces”. The bone formation rate entry in experiment [1] (FIG. 33C) is recorded as “increased”. Moreover, the trabecular bone mass entry in experiment [1] (distal femur and L5 vertebrae) is listed as “increased trabecular bone mass at both skeletal sites”.
